Patent publication US20250241905A1, “3-BETA-HSD1 INHIBITORS AND COMPOSITIONS AND USES THEREOF” (The Cleveland Clinic Foundation, priority 2022, published 2025)

Target: human 3β-HSD1
Test: 3β-HSD1 inhibition, colorimetric NADH detection assay
Assay type: biochemical
Settings: purified recombinant human 3β-HSD1, 50 μM DHEA, 2 mM NAD+, 1 hour, room temperature, duplicate 10-point CRC; read-out: IC50 (nM), in vitro NADH inhibition
From the text: Enzymatic turnover was quantified through NADH generation by purified, recombinant human 3β-HSD1 (expressed in Sf9 insect cells) in the presence of steroidal substrate trans-Dehydroandrosterone (DHEA) that was placed slightly above the experimentally determined Km and saturating amounts of co-factor Nicotinamide adenine dinucleotide (NAD^+). The sequence of recombinant human 3β-HSD1 used is […] […] […] […] […] […] […] (SEQ ID NO: 3). DHEA and NAD+ were enzymatically converted to androstenedione and NADH, respectively. Final NADH concentrations were spectroscopically quantified using a commercially available Amplite™ Colorimetric NADH Assay Kit which utilizes an NADH probe with an absorbance wavelength of 460 nm. Enzymatic assays with a final volume of 25 μL were ran in a 384-well, Greiner Bio-One UV-STAR® assay plate in 50 mM TRIS pH 8.0 assay buffer. […] Compound stocks at 10 mM in DMSO were serial diluted 5-fold in DMSO to generate an ECHO® compatible source plate. 125 nL of DMSO, Trilostane, or serial diluted compounds were then acoustically transferred into an empty UV-STAR® assay plate to give a final assay concentration of 0.5% v/v DMSO. The stamp volume and dilution scheme can be adjusted to accommodate compound potency. The assay can tolerate up to a 5% v/v DMSO final assay concentration. 15 μL of 1 μg purified 3β-HSD1 and 50 μM DHEA (final assay volume concentration) was dispensed per well into the stamped plate, centrifuged for 1 minute at 1000 RPM, covered, and allowed to incubate for 15 minutes at room temp. Enzymatic reactions were initiated upon the addition of 10 μL of NAD^+ diluted in assay buffer to give a final assay volume concentration of 2 mM. The assay plate was centrifuged for 1 minute at 1000 RPM, covered, and incubated at room temperature for 1 hour. 25 μL Amplite™ Colorimetric NADH Assay Kit detection solution (prepared as recommended) was added to all reaction wells, the plate centrifuged for 1 minute at 1000 RPM, covered, and incubated for 15 minutes. Final absorbance values (λ=460 nm) are spectroscopically determined on BioTek® Cytation5 or Synergy4 plate readers. […] From the background subtracted values, the non-inhibited enzyme signal (DMSO treated) was averaged from 32 control reactions. The percent inhibition value was calculated by: % inhibition=(1−((background subtracted inhibited reaction)/(background subtracted non-inhibited average)))*100. The resulting percent inhibition was then plotted in duplicate against corresponding concentration values. The resulting CRCs were fit with a four parameter, variable slope log (inhibitor) vs response equation where Y=bottomvalue+ (topvalue−bottomvalue)/(1+10^((log IC50−X)*Hillslope)) to determine the IC50 values for tested compounds.

human 3β-HSD1, sequence (P14060 2-373 limits assumed): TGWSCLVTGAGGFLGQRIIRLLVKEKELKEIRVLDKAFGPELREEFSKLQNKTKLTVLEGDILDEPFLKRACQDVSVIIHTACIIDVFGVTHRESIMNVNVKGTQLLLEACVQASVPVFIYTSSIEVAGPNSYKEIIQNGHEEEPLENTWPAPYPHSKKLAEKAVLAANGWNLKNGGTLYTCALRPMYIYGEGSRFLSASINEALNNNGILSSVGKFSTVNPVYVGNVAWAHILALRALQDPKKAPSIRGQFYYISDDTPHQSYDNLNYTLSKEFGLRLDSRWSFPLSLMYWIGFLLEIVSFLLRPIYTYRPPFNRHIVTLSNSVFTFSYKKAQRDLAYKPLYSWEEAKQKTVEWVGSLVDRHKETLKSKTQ

Compound	IC50 [nM]
C[C@@]1(Cc2ccccc2)CCc2nc(-c3cc(F)c(O)c(F)c3)ccc2C1=O [Compound 58]	55
CCOC1CCCc2nc(-c3cc(F)c(O)c(F)c3)ccc21 (stereo not drawn) [Compound 76]	389
O=C1c2ccc(-c3cc(F)c(O)c(F)c3)nc2CCC1Cc1ccncc1 (stereo not drawn) [Compound 40]	212
CC1(C)CCc2nc(-c3cc(F)c(O)c(Cl)c3)ccc2C1=O [Compound 54]	107
CC1(C)CNc2nc(-c3cc(F)c(O)c(F)c3)ccc2C1=O [Compound 69]	470
CC1(CO)CCc2nc(-c3cc(F)c(O)c(F)c3)ccc2C1=O (stereo not drawn) [Compound 52]	222
COC1(c2ccccn2)CCCc2nc(-c3cc(F)c(O)c(F)c3)ccc21 (stereo not drawn) [Compound 93]	131
CC1(C)Cc2nc(-c3cc(F)c(O)c(F)c3)ccc2C1=O [Compound 72]	221
CC1(C)CCc2nc(-c3ccc(O)c(Cl)c3)ccc2C1=O [Compound 49]	26
Oc1c(F)cc(-c2ccc3c(n2)CCCC3OCC2COC2)cc1F (stereo not drawn) [Compound 74]	441
O=C1c2ccc(-c3cc(F)c(O)c(F)c3)nc2CC[C@H]1Cc1ccccc1 [Compound 48]	19
COC1(C(C)C)CCCc2nc(-c3cc(F)c(O)c(F)c3)ccc21 (stereo not drawn) [Compound 87]	45
O=C1c2ccc(-c3cc(F)c(O)c(F)c3)nc2CC[C@@H]1Cc1ccccc1 [Compound 47]	177
COC1(c2ncco2)CCCc2nc(-c3cc(F)c(O)c(F)c3)ccc21 (stereo not drawn) [Compound 95]	100
O=C1CCCc2nc(-c3cc(F)c(O)cc3F)ccc21 [Compound 24]	83
O=C1c2ccc(-c3cc(F)c(O)c(F)c3)nc2CCC1Cc1cccnc1 (stereo not drawn) [Compound 39]	249
CC1(C)CCc2nc(-c3cc(F)c(O)cc3F)ncc2C1=O [Compound 85]	1540
CC(C)c1cc(-c2cc(F)c(O)c(F)c2)nc2c1C(=O)CCC2 [Compound 45]	8610
Oc1c(F)cc(-c2ccc3c(n2)CCCC3(O)c2ccccn2)cc1F (stereo not drawn) [Compound 94]	238
CC1(O)CCCc2nc(-c3cc(F)c(O)c(F)c3)ccc21 (stereo not drawn) [Compound 14]	339
CC1(C)CC(=O)c2ccc(-c3cc(F)c(O)c(F)c3)nc2C1 [Compound 42]	287
CC1(C)CCc2nc(-c3cc(F)c(O)c(C#N)c3)ccc2C1=O [Compound 67]	1880
Oc1c(F)cc(-c2ccc3c(n2)CCCC3O)cc1F (stereo not drawn) [Compound 13]	748
Cc1cc(-c2cc(F)c(O)c(F)c2)nc2c1C(=O)CCC2 [Compound 31]	991
O=C1CCOc2nc(-c3cc(F)c(O)c(F)c3)ccc21 [Compound 64]	433

Compound	IC50 [nM]
COC1CCCc2nc(-c3cc(F)c(O)c(F)c3)ccc21 (stereo not drawn) [Compound 53]	204
CCOC1(c2ccccc2)CCCc2nc(-c3cc(F)c(O)c(F)c3)ccc21 (stereo not drawn) [Compound 90]	52
CCc1cc(-c2cc(F)c(O)c(F)c2)nc2c1C(=O)CCC2 [Compound 44]	1280
O=C1c2ccc(-c3cc(F)c(O)c(F)c3)nc2CCC12COCOC2 [Compound 62]	541
CC1(C)CCc2nc(-c3cc(F)c(O)c(F)c3F)ccc2C1=O [Compound 80]	152
C[C@]1(Cc2ccccc2)CCc2nc(-c3cc(F)c(O)c(F)c3)ccc2C1=O [Compound 57]	78
Cc1cc(-c2ccc3c(n2)CCC(C)(C)C3=O)c(F)c(F)c1O [Compound 81]	326
O=C1CCCCc2nc(-c3cc(F)c(O)c(F)c3)ccc21 [Compound 32]	90
O=C1c2ccc(-c3cc(F)c(O)cc3F)nc2CCC12CC2 [Compound 61]	127
CC1(C)CCc2nc(-c3ccc(O)c(F)c3F)ccc2C1=O [Compound 73]	122
CC1(C)CCc2nc(-c3ccc(O)c(F)c3)ncc2C1=O [Compound 84]	288
O=C1c2ccc(-c3cc(F)c(O)c(F)c3)nc2CCC1F (stereo not drawn) [Compound 51]	149
Cc1cc(-c2ccc3c(n2)CCC(C)(C)C3=O)cc(F)c1O [Compound 71]	67
Oc1c(F)cc(-c2ccc3c(n2)CCCC3OC2COC2)cc1F (stereo not drawn) [Compound 77]	1070
CC1(C)CCc2nc(-c3ccc(O)c(F)c3)ccc2C1(C)O (stereo not drawn) [Compound 18]	504
COC1(C)CCCc2nc(-c3cc(F)c(O)c(F)c3)ccc21 (stereo not drawn) [Compound 79]	38
O=C1CCCc2nc(-c3cnc(O)c(F)c3)ccc21 [Compound 21]	6100
CC1(C)CCc2nc(-c3ccc(O)c(F)c3)ccc2C1=O [Compound 6, 2-(3-fluoro-4-hydroxyphenyl)-6,6-dimethyl-7,8-dihydroquinolin-5(6H)-one]	51
CC1(C)CCc2nc(-c3ccc(O)c(C#N)c3)ccc2C1=O [Compound 4, 5-(6,6-dimethyl-5-oxo-5,6,7,8-tetrahydroquinolin-2-yl)-2-hydroxybenzonitrile]	1860
O=C1CCCc2nc(-c3c(F)c(F)c(O)c(F)c3F)ccc21 [Compound 28]	3000
CC[C@]1(C)CCc2nc(-c3cc(F)c(O)c(F)c3)ccc2C1=O [Compound 56]	110
O=C1CCCc2nc(-c3cc(F)c(O)c(F)c3)cnc21 [Compound 70]	7640
CC1(C)CCc2nc(-c3cc(F)c(O)c(F)c3)ccc2C1(O)c1ccccc1 (stereo not drawn) [Compound 19]	314
CC1(C(F)(F)F)CCc2nc(-c3cc(F)c(O)c(F)c3)ccc2C1=O (stereo not drawn) [Compound 36]	59
O=C1CCCc2nc(-c3cc(F)c(O)c(Cl)c3)ccc21 [Compound 23]	49

Compound	IC50 [nM]
CCN1CC(C)(C)C(=O)c2ccc(-c3cc(F)c(O)c(F)c3)nc21 [Compound 82]	326
COCC1(C)CCc2nc(-c3cc(F)c(O)c(F)c3)ccc2C1=O (stereo not drawn) [Compound 75]	338
CC1(C)CCc2nc(-c3ccc(O)c(C(F)(F)F)c3)ccc2C1=O [Compound 50]	1500
O=C1c2ccc(-c3cc(F)c(O)c(F)c3)nc2CCC12COC2 [Compound 63]	370
CN(C)CC1(C)CCc2nc(-c3cc(F)c(O)c(F)c3)ccc2C1=O (stereo not drawn) [Compound 60]	1170
O=C1CCc2nc(-c3cc(F)c(O)c(F)c3)ccc21 [Compound 22]	297
O=C1CCNc2nc(-c3cc(F)c(O)c(F)c3)ccc21 [Compound 26]	218
Cc1c(-c2ccc3c(n2)CCCC3=O)cc(F)c(O)c1F [Compound 27]	367
CC1(F)CCc2nc(-c3cc(F)c(O)c(F)c3)ccc2C1=O (stereo not drawn) [Compound 46]	42
CC1(C)CCc2nc(-c3cnc(O)c(F)c3)ccc2C1=O [Compound 65]	> 20000
CC1(CC(F)(F)F)CCc2nc(-c3cc(F)c(O)c(F)c3)ccc2C1=O (stereo not drawn) [Compound 89]	188
CCC1(O)CCCc2nc(-c3cc(F)c(O)c(F)c3)ccc21 (stereo not drawn) [Compound 43]	365
CC1(C)CCc2nc(-c3cc(F)c(O)c(F)c3)ccc2C1(O)Cc1ccccc1 (stereo not drawn) [Compound 17]	227
O=C(O)CC1CCc2nc(-c3cc(F)c(O)c(F)c3)ccc2C1=O (stereo not drawn) [Compound 37]	2840
CC1(C#N)CCc2nc(-c3cc(F)c(O)c(F)c3)ccc2C1=O (stereo not drawn) [Compound 35]	92
O=C1c2ccc(-c3cc(F)c(O)c(F)c3)nc2CCC1Cc1ccccn1 (stereo not drawn) [Compound 38]	272
Oc1c(F)cc(-c2ccc3c(n2)CCCC3(O)c2cccnc2)cc1F (stereo not drawn) [Compound 92]	68
O=C1c2ccc(-c3cc(F)c(O)c(F)c3)nc2CCC1CC1CC1 (stereo not drawn) [Compound 29]	130
COC1(c2cccnc2)CCCc2nc(-c3cc(F)c(O)c(F)c3)ccc21 (stereo not drawn) [Compound 91]	25
CC1(C)CCCc2nc(-c3cc(F)c(O)c(F)c3)ccc2C1=O [Compound 33]	292
CC1(C2(O)COC2)CCc2nc(-c3cc(F)c(O)c(F)c3)ccc2C1=O (stereo not drawn) [Compound 86]	1420
CN1CC(C)(C)C(=O)c2ccc(-c3cc(F)c(O)c(F)c3)nc21 [Compound 68]	308
NC1CCCc2nc(-c3cc(F)c(O)c(F)c3)ccc21 (stereo not drawn) [Compound 15]	3440
CC1(C(F)(F)C(F)(F)F)CCc2nc(-c3cc(F)c(O)c(F)c3)ccc2C1=O (stereo not drawn) [Compound 88]	78
CC1(O)CCc2nc(-c3cc(F)c(O)c(F)c3)ccc2C1=O (stereo not drawn) [Compound 34]	446
